The source of these data is ChEMBL document CHEMBL5532665 (J Med Chem, 2024).

pEC50: −log10 of the molar value. The source made the active and inactive calls. The calls are words filed in the database; no cut-off is given here.

Data set [1] has as its system Mus musculus. Nature of the data set: Antinociceptive activity in Kunming mouse model assessed as latency of tail withdrawal at 13.9 nmol/kg, sc measured for 30 mins by tail-flick test relative to control. It counts as functional. To be noted: 0.5 h.
For data set [2], the system named is Mus musculus. The data set is described as follows: Antinociceptive activity in Kunming mouse model assessed as latency of tail withdrawal at 13.9 nmol/kg, sc measured for 60 mins by tail-flick test relative to control. It counts as functional. To be noted: 1 h.
Data set [3] concerns Mus musculus. Nature of the data set: Antinociceptive activity in Kunming mouse model assessed as latency of tail withdrawal at 13.9 nmol/kg, sc measured for 10 mins by tail-flick test relative to control. It counts as functional. In general terms: Hot-plate and tail-flick tests time the reaction to a heat stimulus.
The target of data set [4] is T1, Mu-type opioid receptor (Homo sapiens, UniProt P35372). Nature of the data set: Agonist activity at human MOR expressed in CHO-K1 cells co-expressing G-alpha15 by calcium mobilization assay. The class given is functional, cell-based. The following applies: cho-k1.
T1 sequence (P35372 whole entry): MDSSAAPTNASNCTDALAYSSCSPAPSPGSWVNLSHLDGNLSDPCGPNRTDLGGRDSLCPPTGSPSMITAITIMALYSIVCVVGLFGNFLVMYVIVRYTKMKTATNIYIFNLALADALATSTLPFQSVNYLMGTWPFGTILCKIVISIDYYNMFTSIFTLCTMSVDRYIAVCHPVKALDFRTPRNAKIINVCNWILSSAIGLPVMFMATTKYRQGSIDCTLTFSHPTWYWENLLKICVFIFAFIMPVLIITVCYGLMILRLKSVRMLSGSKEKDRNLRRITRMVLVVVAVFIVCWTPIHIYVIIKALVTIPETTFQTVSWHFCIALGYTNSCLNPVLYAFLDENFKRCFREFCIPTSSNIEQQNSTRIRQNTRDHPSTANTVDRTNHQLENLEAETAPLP
In data set [5] the test system is Mus musculus. Nature of the data set: Antinociceptive activity in Kunming mouse model assessed as latency of tail withdrawal at 13.9 nmol/kg, sc measured for 120 mins by tail-flick test relative to control. The class given is functional. The following applies: 2 h.
Data set [6] in a line: Stability in mouse plasma assessed as half life at 0.01 mol/L measured for 72 hrs by RP-HPLC analysis. It counts as ADME, cell-free.
The target of data set [7] is T1, Mu-type opioid receptor. Nature of the data set: Agonist activity at human MOR expressed in CHO-K1 cells co-expressing G-alpha15 by calcium mobilization assay relative to control. The class given is functional, cell-based. To be noted: filed as agonist. In general terms: A change in cytosolic calcium serves as a functional read-out for many receptors and channels.

Data set [8] deals with T2, Delta-type opioid receptor (Homo sapiens, UniProt P41143). The data set is described as follows: Agonist activity at human DOR expressed in CHO-K1 cells co-expressing G-alpha15 by calcium mobilization assay. The class given is functional, cell-based. To be noted: cho-k1.
T2 sequence (P41143 whole entry): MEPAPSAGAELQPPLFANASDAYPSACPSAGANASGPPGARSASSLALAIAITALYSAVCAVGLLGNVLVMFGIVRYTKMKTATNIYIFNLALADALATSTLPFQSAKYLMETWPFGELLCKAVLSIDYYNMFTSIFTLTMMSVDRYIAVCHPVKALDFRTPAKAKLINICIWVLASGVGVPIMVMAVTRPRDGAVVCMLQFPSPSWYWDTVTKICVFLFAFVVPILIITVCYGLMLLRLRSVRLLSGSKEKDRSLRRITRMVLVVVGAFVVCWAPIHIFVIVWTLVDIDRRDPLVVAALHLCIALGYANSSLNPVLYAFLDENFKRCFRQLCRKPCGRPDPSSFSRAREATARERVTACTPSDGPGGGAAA
Data set [9] has as its system Mus musculus. Nature of the data set: Antinociceptive activity in Kunming mouse model administered subcutaneously measured for 5 to 15 mins by acetic acid-induced writhing test. The class given is functional. To be noted: route sc, time 5-15 min. In general terms: An intraperitoneal irritant provokes the stretching counted in writhing tests.
Data set [10] deals with Mus musculus. The data set is described as follows: Antinociceptive activity in Kunming mouse model at 13.9 nmol/kg, sc pretreated with NALM subcutaneously followed by compound administration by tail-flick test. The class given is functional, organism-based.
For data set [11], the target named is T3, Kappa-type opioid receptor (Homo sapiens, UniProt P41145). Nature of the data set: Agonist activity at human KOR expressed in CHO-K1 cells co-expressing G-alpha15 by calcium mobilization assay. The class given is functional, cell-based. To be noted: cho-k1.
T3 sequence (P41145 whole entry): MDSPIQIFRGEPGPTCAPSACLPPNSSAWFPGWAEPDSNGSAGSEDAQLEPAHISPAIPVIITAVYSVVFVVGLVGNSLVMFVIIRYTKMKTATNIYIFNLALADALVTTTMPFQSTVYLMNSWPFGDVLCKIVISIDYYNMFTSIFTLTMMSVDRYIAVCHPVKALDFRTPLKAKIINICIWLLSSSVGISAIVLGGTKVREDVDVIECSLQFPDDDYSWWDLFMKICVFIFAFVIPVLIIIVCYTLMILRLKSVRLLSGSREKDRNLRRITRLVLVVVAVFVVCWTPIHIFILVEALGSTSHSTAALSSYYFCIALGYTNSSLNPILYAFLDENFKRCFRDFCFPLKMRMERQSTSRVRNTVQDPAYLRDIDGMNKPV
Data set [12] deals with Mus musculus. The data set is described as follows: Antinociceptive activity in Kunming mouse model at 13.9 nmol/kg, sc in presence of beta-FNA by tail-flick test. The class given is functional, organism-based.
Data set [13] deals with Mus musculus. Nature of the data set: Induction of physical dependence in Kunming mouse model assessed as jumping behavior at 5.5 to 275 nmol/kg, sc administered as 7 escalating doses with 8 hr-intervals in-between followed by Nal administration post-2 hrs of last compound dose and further measured for 30 mins by withdrawal assay. It counts as functional, organism-based. To be noted: dose 5.5-275 nmol/kg, time 50.5 hrs.

The subject of data set [14] is Mus musculus. Nature of the data set: Antinociceptive activity in Kunming mouse model at 13.9 nmol/kg, sc in presence of nor-BNI by tail-flick test. The class given is functional, organism-based.
Data set [15] concerns Mus musculus. Nature of the data set: Antinociceptive activity in Kunming mouse model administered subcutaneously by tail-flick test. It counts as functional. The following applies: route sc.
In data set [16] the test system is Mus musculus. Nature of the data set: Antinociceptive activity in Kunming mouse model assessed as increase in analgesic effect at 0.14 to 13.9 nmol/kg, sc measured for 180 to 360 mins by tail-flick test. It counts as functional, organism-based. To be noted: dose 0.14-13.9 nmol/kg, time 180-360 min.
In data set [17] the test system is Mus musculus. The data set is described as follows: Antinociceptive activity in Kunming mouse model at 13.9 nmol/kg, sc pretreated with NALM intracerebroventricularly followed by compound administration by tail-flick test. It counts as functional, organism-based.
Data set [18] deals with Mus musculus. The data set is described as follows: Rewarding affect in Kunming mouse model at 139 nmol/kg, sc pre-exposed to place conditioning for 3 days followed by compound administration and further re-exposed to place conditioning measured on day 5 by unbiased CPP method. The following applies: time 2.0 day. The class given is functional, organism-based.
Data set [19] has as its target T2, Delta-type opioid receptor. Nature of the data set: Agonist activity at human DOR expressed in CHO-K1 cells co-expressing G-alpha15 by calcium mobilization assay relative to control. It counts as functional, cell-based. To be noted: filed as agonist.
Data set [20] has as its target T3, Kappa-type opioid receptor. Nature of the data set: Agonist activity at human KOR expressed in CHO-K1 cells co-expressing G-alpha15 by calcium mobilization assay relative to control. It counts as functional, cell-based. The following applies: filed as agonist.
Data set [21] relates to Mus musculus. The data set is described as follows: Antinociceptive activity in Kunming mouse model at 13.9 nmol/kg, sc in presence of NTI by tail-flick test. The class given is functional, organism-based.
The test system of data set [22] is Mus musculus. Nature of the data set: Antinociceptive activity in Kunming mouse model at 132.2 nmol/kg, sc in presence of NTI by tail-flick test. It counts as functional, organism-based.
Data set [23] has as its system Mus musculus. The data set is described as follows: Antinociceptive activity in Kunming mouse model at 132.2 nmol/kg, sc in presence of nor-BNI by tail-flick test. It counts as functional, organism-based.
The test system of data set [24] is Mus musculus. Nature of the data set: Antinociceptive activity in Kunming mouse model at 132.2 nmol/kg, sc pretreated with NALM intracerebroventricularly followed by compound administration by tail-flick test. The class given is functional, organism-based.
Data set [25] has as its system Mus musculus. Nature of the data set: Antinociceptive activity in Kunming mouse model at 132.2 nmol/kg, sc in presence of beta-FNA by tail-flick test. The class given is functional, organism-based.
Data set [26] concerns the target T3, Kappa-type opioid receptor. The data set is described as follows: Agonist activity at human KOR expressed in CHO-K1 cells co-expressing G-alpha15 upto 100 uM by calcium mobilization assay. The class given is functional, cell-based.
In data set [27] the test system is Mus musculus. Nature of the data set: Antinociceptive activity in Kunming mouse model at 132.2 nmol/kg, sc pretreated with NALM subcutaneously followed by compound administration by tail-flick test. It counts as functional, organism-based.
The subject of data set [28] is Mus musculus. Nature of the data set: Antinociception activity in Kunming mouse model assessed as analgesic effect at 13.9 nmol/kg, sc administered daily measured for 8 days by tail-flick test. It counts as functional, organism-based. The following applies: time 8.0 day.
The subject of data set [29] is Mus musculus. The data set is described as follows: Induction of physical dependence in Kunming mouse model assessed as jumping behavior at 2.5 to 125 nmol/kg, sc administered as 7 escalating doses with 8 hr-intervals in-between followed by Nal administration post-2 hrs of last compound dose and further measured for 30 mins by withdrawal assay. The class given is functional, organism-based. The following applies: dose 2.5-125 nmol/kg, time 50.5 hrs.

A word on the pEC50: it is the EC50 on a negative log10 scale, so that one unit is a factor of ten. In general, half-life refers to how long it takes for the measured level to halve. As a reminder, the Emax is the size of the effect at its maximum, as opposed to the concentration needed. In the case of `C[C@H]1NC(=O)[C@H](NC(=O)[C@@H](N)Cc2ccc(O)cc2)CCCCNC(=O)C[C@H](C(=O)N2CCC[C@H]2C(N)=O)NC(=O)[C@H](Cc2ccccc2)NC1=O`, the MPE is recorded as 91.4% in the data set with Mus musculus [1], 88.4% with Mus musculus [2], 63.6% in the data set on Mus musculus [3] and 44.4% in the data set with Mus musculus [5]. In addition, on Mu-type opioid receptor [4], the negative logarithm of the EC50 (pEC50) is 7.20. In addition, the half-life at 0.01 mol/L in data set [6] is > 3 days. Besides, the Emax on Mu-type opioid receptor [7] came out at 115%.

What is called ED50 is the dose at which the effect has come halfway, by size or by number of responders. Low values mean greater potency, high ones weaker potency. Consider `NC(=O)[C@@H]1CCCCN1C(=O)[C@H]1CC(=O)NCCCC[C@@H](NC(=O)[C@@H](N)Cc2ccc(O)cc2)C(=O)NCC(=O)N[C@@H](Cc2ccccc2)C(=O)N1`, for which the pEC50 in data set [8] was 9.70; in data set [11], 6.67; on Mu-type opioid receptor [4] it was 9.05. In addition, the MPE in the data set with Mus musculus [1] was found to be 91.2%; with Mus musculus [2] it was 86.9%; in the data set on Mus musculus [3] it was 73.1%; in the data set on Mus musculus [5] it was 56.6%. For the same compound, the figures for the ED50 with Mus musculus [9] and with Mus musculus [15] were 0.0055 µmol/kg and 0.0007 µmol/kg, respectively. For the same compound, the result in the data set with Mus musculus [10], with Mus musculus [16] and in the data set with Mus musculus [21] was Active. In addition, the result in the data set with Mus musculus [12], with Mus musculus [13], with Mus musculus [14], with Mus musculus [17] and in the data set with Mus musculus [18] was inactive. Moreover, the results for the maximum response (Emax) (in [19]; in [20]; on Mu-type opioid receptor [7]) were 101%, 99.5% and 107%, respectively. Also, in data set [6], the half-life at 0.01 mol/L is 18.5 days.

`NC(=O)[C@@H]1CCCN1C(=O)[C@H]1CC(=O)NCCCC[C@@H](NC(=O)[C@@H](N)Cc2ccc(O)cc2)C(=O)NCC(=O)N[C@@H](Cc2ccc3ccccc3c2)C(=O)N1`: the outcome with Mus musculus [22], with Mus musculus [23] and in the data set with Mus musculus [24] was Active. The Emax came to 110% in data set [19] and 98.6% on Mu-type opioid receptor [7]. The outcome (in the data set on Mus musculus [25]; in [26]; in the data set on Mus musculus [27]) was inactive.

As for `CN1C(=O)CNC(=O)[C@H](NC(=O)[C@@H](N)Cc2ccc(O)cc2)CCCCNC(=O)C[C@H](C(=O)N2CCC[C@H]2C(N)=O)NC(=O)[C@@H]1Cc1ccccc1`, the result with Mus musculus [10], with Mus musculus [12], in the data set on Mus musculus [14], in the data set on Mus musculus [29] and with Mus musculus [18] was inactive. The outcome in the data set on Mus musculus [28], with Mus musculus [16], in the data set on Mus musculus [17] and in the data set on Mus musculus [21] was Active. Besides, the Emax worked out at 121% in [19], 93.7% in [20] and 90.7% on Mu-type opioid receptor [7].
